The text below walks through data of publication PMC10458514, “Structure–Activity Relationship Studies on 6-Chloro-1-phenylbenzazepines Leads to the Identification of a New Dopamine D1 Receptor Antagonist” (Molecules, 2023).

Series [1] addresses D5R (dopamine D5 receptor) (Homo sapiens, UniProt P21918). Put plainly: biochemical. The settings on record: [3H]SCH23390 radioligand, triplicate, na = not active (<50% inhibition in a primary assay when tested at 10 µM).
Series [2] has as its target T1, D1R (dopamine D1 receptor) (Homo sapiens, UniProt P21728). The settings on record: for Ki D1R: [3H]SCH23390 radioligand, triplicate, na = not active (<50% inhibition in a primary assay when tested at 10 µM); for Selectivity D5/D1: ratio of Ki D5R to Ki D1R.
In series [3] the target is T1, D1R (dopamine D1 receptor). The experiment in a line: biochemical. The settings on record: [3H]SCH23390 radioligand, triplicate, na = not active (<50% inhibition in a primary assay when tested at 10 µM).
Series [4] deals with T2, D1R (Homo sapiens, UniProt P21728).
T2 construct: Eurofins Discover X
Put plainly: D1R cAMP functional assay, agonist format (Eurofins DiscoverX HitHunter). It is filed as cell-based. Particulars: agonist mode.
Procedure: (§1) In the agonist format, cells were first incubated with sample to induce a response. Then, the media was aspirated from the cells and replaced with 15 μL 2:1 HBSS/10 mM Hepes: cAMP XS + Ab reagent. Sample stocks were diluted to generate 4X sample in assay buffer. […] The final assay concentration used was 1%. In antagonist mode, the cells were pre-incubated with a sample followed by agonist challenge at the EC80 concentration. The media was aspirated from cells and replaced with 10 μL 2:1 HBSS/10 mM Hepes: cAMP XS + Ab reagent. […] For agonist and antagonist assays, signal detection was performed as follows. […] This was followed by incubation with 20 μL cAMP XS + EA reagent for 3 h at room temperature. The microplates were read following signal generation with a PerkinElmer Envision™ instrument for chemiluminescent signal detection.

Series [5] deals with T2, D1R. The experiment in a line: D1R cAMP functional assay, antagonist format (Eurofins DiscoverX HitHunter). It is filed as cell-based. Particulars: antagonist mode; for Max Response, antagonist format: agonist challenge at EC80, in % (unit assumed).
Procedure: as §1

By melting point is commonly meant the temperature, or range, at which the solid turns liquid. In general, Ki refers to a dissociation constant, usually derived from enzyme kinetics or from competition with a known ligand. A higher Ki goes with weaker binding. In general, EC50 refers to the midpoint of the concentration-response curve. As usually defined, the IC50 is the concentration that inhibits the measured activity by half.

“And” between values parts separate entries of the source, which are not always exact repeats. Equal entries are not always repeated.

D5R (dopamine D5 receptor), sequence (P21918 whole entry): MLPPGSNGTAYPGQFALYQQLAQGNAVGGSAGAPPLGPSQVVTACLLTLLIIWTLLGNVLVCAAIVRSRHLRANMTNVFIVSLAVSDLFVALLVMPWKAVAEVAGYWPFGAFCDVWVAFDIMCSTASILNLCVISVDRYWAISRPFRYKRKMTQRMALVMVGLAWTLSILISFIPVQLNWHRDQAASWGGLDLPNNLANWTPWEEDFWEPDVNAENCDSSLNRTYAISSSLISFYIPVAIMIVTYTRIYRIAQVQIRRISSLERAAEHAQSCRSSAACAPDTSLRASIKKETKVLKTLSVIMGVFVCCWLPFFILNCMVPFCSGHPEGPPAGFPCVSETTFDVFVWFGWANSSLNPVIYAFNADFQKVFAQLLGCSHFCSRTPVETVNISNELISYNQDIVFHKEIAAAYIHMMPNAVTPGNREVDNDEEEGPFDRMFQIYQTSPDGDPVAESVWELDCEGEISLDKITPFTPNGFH
T1 sequence (P21728 whole entry): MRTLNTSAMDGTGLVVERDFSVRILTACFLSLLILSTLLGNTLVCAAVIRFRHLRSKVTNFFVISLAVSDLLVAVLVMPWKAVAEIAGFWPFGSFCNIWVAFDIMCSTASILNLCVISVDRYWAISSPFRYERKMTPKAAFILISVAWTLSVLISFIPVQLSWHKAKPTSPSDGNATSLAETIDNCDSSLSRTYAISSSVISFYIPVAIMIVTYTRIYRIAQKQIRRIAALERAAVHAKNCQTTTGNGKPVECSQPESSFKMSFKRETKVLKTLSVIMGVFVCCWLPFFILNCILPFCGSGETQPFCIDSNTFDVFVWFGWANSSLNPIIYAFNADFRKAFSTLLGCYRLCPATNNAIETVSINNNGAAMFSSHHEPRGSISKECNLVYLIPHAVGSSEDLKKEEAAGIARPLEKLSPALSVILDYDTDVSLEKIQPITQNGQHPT
T2 sequence (P21728 whole entry): as above

Take `COc1ccc2c(c1Cl)CCNCC2c1ccccc1` (stereo not drawn) [Compound 10a, 6-chloro-7-methoxy-1-phenyl-2,3,4,5-tetrahydro-1H-benzo[d]azepine]: the melting point was in the range of 156.4 to 158 °C.

In the case of `COc1ccc2c(c1Cl)CCNCC2c1cccc(C)c1` (stereo not drawn) [Compound 10b, 6-chloro-7-methoxy-1-(m-tolyl)-2,3,4,5-tetrahydro-1H-benzo[d]azepine], the melting point lay in the range of 180.4 to 181.8 °C.

`COc1ccc(C2CNCCc3c2ccc(OC)c3Cl)cc1` (stereo not drawn) [Compound 10c, 6-chloro-7-methoxy-1-(4-methoxyphenyl)-2,3,4,5-tetrahydro-1H-benzo[d]azepine] came in with a melting point of 151.3 to 152.7 °C.

`Oc1ccc2c(c1Cl)CCNCC2c1ccccc1` (stereo not drawn) [Compound 11a, 6-chloro-1-phenyl-2,3,4,5-tetrahydro-1H-benzo[d]azepin-7-ol] had a melting point of 134.6 to 135.8 °C. In series [1], this molecule displayed a Ki of 470 nM. In addition, the “Ki D1R” value in series [2] is “no D1R affinity”.

Take `Cc1cccc(C2CNCCc3c2ccc(O)c3Cl)c1` (stereo not drawn) [Compound 11b, 6-chloro-1-(m-tolyl)-2,3,4,5-tetrahydro-1H-benzo[d]azepin-7-ol]: the melting point was in the range of 122.3 to 124.2 °C. The “Ki D1R” value in series [2] was “no affinity”.

`Oc1ccc(C2CNCCc3c2ccc(O)c3Cl)cc1` (stereo not drawn) [Compound 11d, 6-chloro-1-(4-hydroxyphenyl)-2,3,4,5-tetrahydro-1H-benzo[d]azepin-7-ol] showed a melting point of 135.8 to 136.9 °C. The “Ki D1R” value in series [2] was “did not bind to D1R”.

Consider `C=CCN1CCc2c(ccc(OC)c2Cl)C(c2cccc(C)c2)C1` (stereo not drawn) [Compound 12b, 3-allyl-6-chloro-7-methoxy-1-(m-tolyl)-2,3,4,5-tetrahydro-1H-benzo[d]azepine], for which the melting point is 172.1 to 173.8 °C.

With `C=CCN1CCc2c(ccc(OC)c2Cl)C(c2ccc(OC)cc2)C1` (stereo not drawn) [Compound 12c, 3-allyl-6-chloro-7-methoxy-1-(4-methoxyphenyl)-2,3,4,5-tetrahydro-1H-benzo[d]azepine], the melting point was 155.4 to 157.1 °C.

Molecule `COc1ccc2c(c1Cl)CCN(C)CC2c1cccc(C)c1` (stereo not drawn) [Compound 13b, 6-chloro-7-methoxy-3-methyl-1-(m-tolyl)-2,3,4,5-tetrahydro-1H-benzo[d]azepine] showed a melting point of 174.5 to 176.1 °C.

Molecule `COc1ccc(C2CN(C)CCc3c2ccc(OC)c3Cl)cc1` (stereo not drawn) [Compound 13c, 6-chloro-7-methoxy-1-(4-methoxyphenyl)-3-methyl-2,3,4,5-tetrahydro-1H-benzo[d]azepine] returned a melting point of 155.4 to 157.1 °C.

For `C=CCN1CCc2c(ccc(O)c2Cl)C(c2ccccc2)C1` (stereo not drawn) [Compound 14a], the figures for the Ki in series [3] and in series [1] were 102 ± 5.2 nM and 297 ± 19.3 nM, respectively. In addition, the “Selectivity D5/D1” value in series [2] amounted to 2.9.

The molecule `C=CCN1CCc2c(ccc(O)c2Cl)C(c2cccc(C)c2)C1` (stereo not drawn) [Compound 14b, 3-allyl-6-chloro-1-(m-tolyl)-2,3,4,5-tetrahydro-1H-benzo[d]azepin-7-ol] had a melting point of 151.3 to 152.7 °C. Affinity in series [3] was put at a Ki of 281 nM. In series [1], this molecule had a Ki of 741 ± 12.5 nM. In series [2], the “Selectivity D5/D1” value is on record as 2.6.

`C=CCN1CCc2c(ccc(O)c2Cl)C(c2ccc(O)cc2)C1` (stereo not drawn) [Compound 14d, 3-allyl-6-chloro-1-(4-hydroxyphenyl)-2,3,4,5-tetrahydro-1H-benzo[d]azepin-7-ol] showed a melting point of 132.5 to 134.1 °C. The “Ki D1R” value in series [2] was “no affinity”.

In turn, `CN1CCc2c(ccc(O)c2Cl)C(c2ccccc2)C1` (stereo not drawn) [Compound 15a, 6-chloro-3-methyl-1-phenyl-2,3,4,5-tetrahydro-1H-benzo[d]azepin-7-ol] yielded a melting point of 143.5 to 145.1 °C. For the same molecule, the inhibition constant (Ki) in series [3] is 30 nM and 30.1 nM. Besides, in series [1], the inhibitory constant (Ki) stood at 187 nM. Moreover, the “Selectivity D5/D1” value in series [2] was 6 and 6.2. Also, the “RC50 (EC50), agonist format” value on D1R [4] is given as “No D1R agonistic activity”. In addition, the “Max Response, agonist format” value at D1R [4] (in % (unit assumed)) was 17.22. Besides, on D1R [4] (read-out: RC50 (EC50), agonist format), the EC50 was more than 10000 nM. Further, the “Max Response, antagonist format” value on D1R [5] is 66.12. Moreover, at D1R [5] (agonist challenge at EC80, read-out: RC50 (IC50), antagonist format), the IC50 was 130 nM.

With `Cc1cccc(C2CN(C)CCc3c2ccc(O)c3Cl)c1` (stereo not drawn) [Compound 15b, 6-chloro-3-methyl-1-(m-tolyl)-2,3,4,5-tetrahydro-1H-benzo[d]azepin-7-ol], the melting point lay within 142.6 to 144 °C. Also, in series [3], the Ki is 78 nM and 77.9 nM. This molecule also came in with a Ki in series [1] of 165 ± 4.9 nM. The “Selectivity D5/D1” value in series [2] is recorded as 2.1.

`CN1CCc2c(ccc(O)c2Cl)C(c2ccc(O)cc2)C1` (stereo not drawn) [Compound 15d]: the inhibition constant (Ki) in series [3] was 161 nM; in series [1], 413 ± 9.8 nM. The “Selectivity D5/D1” value in series [2] is given as 2.6.

Molecule `CN1CCc2c(cc([N+](=O)[O-])c(O)c2Cl)C(c2ccccc2)C1` (stereo not drawn) [Compound 16a, 6-chloro-3-methyl-8-nitro-1-phenyl-2,3,4,5-tetrahydro-1H-benzo[d]azepin-7-ol] came in with a melting point of 198.7 to 200 °C. The “Ki D1R” value in series [2] was “no affinity”.

`Cc1cccc(C2CN(C)CCc3c2cc([N+](=O)[O-])c(O)c3Cl)c1` (stereo not drawn) [Compound 16b, 6-chloro-3-methyl-8-nitro-1-(m-tolyl)-2,3,4,5-tetrahydro-1H-benzo[d]azepin-7-ol] had a melting point of 210.4 to 212.6 °C. This molecule yielded an inhibition constant (Ki) in series [3] of 4350 nM.

Molecule `CN1CCc2c(cc(N)c(O)c2Cl)C(c2ccccc2)C1` (stereo not drawn) [Compound 17a, 8-amino-6-chloro-3-methyl-1-phenyl-2,3,4,5-tetrahydro-1H-benzo[d]azepin-7-ol] showed a melting point of 137 to 138.9 °C. Further, the inhibition constant Ki in series [3] came to 210 nM. In series [1], the inhibition constant Ki is 270 ± 8.4 nM. Further, in series [2], the “Selectivity D5/D1” value worked out at 1.3.

`Cc1cccc(C2CN(C)CCc3c2cc(N)c(O)c3Cl)c1` (stereo not drawn) [Compound 17b, 8-amino-6-chloro-3-methyl-1-(m-tolyl)-2,3,4,5-tetrahydro-1H-benzo[d]azepin-7-ol]: the melting point was in the range of 134.8 to 136 °C. Also, the Ki in series [3] was 72 nM and 71.9 nM. The affinity in series [1] corresponds to a Ki of 146 ± 5.8 nM. Also, the “Selectivity D5/D1” value in series [2] stood at 2.0.

Molecule `CC(=O)Nc1cc2c(c(Cl)c1O)CCN(C)CC2c1ccccc1` (stereo not drawn) [Compound 18a, N-(9-chloro-8-hydroxy-3-methyl-5-phenyl-2,3,4,5-tetrahydro-1H-benzo[d]azepin-7-yl)acetamide] showed a melting point of 154.4 to 156.2 °C.

In the case of `CC(=O)Nc1cc2c(c(Cl)c1O)CCN(C)CC2c1cccc(C)c1` (stereo not drawn) [Compound 18b, N-(9-chloro-8-hydroxy-3-methyl-5-(m-tolyl)-2,3,4,5-tetrahydro-1H-benzo[d]azepin-7-yl)acetamide], the melting point is 151.6 to 152.8 °C. This molecule also returned an inhibition constant Ki in series [3] of 1360 ± 14 nM.

In the case of `CCCC(=O)Nc1cc2c(c(Cl)c1O)CCN(C)CC2c1ccccc1` (stereo not drawn) [Compound 19a, N-(9-chloro-8-hydroxy-3-methyl-5-phenyl-2,3,4,5-tetrahydro-1H-benzo[d]azepin-7-yl)butyramide], the melting point was in the range of 148.7 to 150.1 °C. The molecule also showed an inhibition constant Ki in series [3] of 1970 ± 41.4 nM.

Take `CCCC(=O)Nc1cc2c(c(Cl)c1O)CCN(C)CC2c1cccc(C)c1` (stereo not drawn) [Compound 19b, N-(9-chloro-8-hydroxy-3-methyl-5-(m-tolyl)-2,3,4,5-tetrahydro-1H-benzo[d]azepin-7-yl)butyramide]: the melting point was 156.2 to 157.9 °C. The same molecule came in with an inhibition constant Ki in series [3] of 634 ± 12.5 nM. Moreover, in series [1], the inhibitory constant (Ki) turned out to be 2960 ± 29.6 nM. Besides, in series [2], the “Selectivity D5/D1” value worked out at 4.7.

`CC(C)C(=O)Nc1cc2c(c(Cl)c1O)CCN(C)CC2c1ccccc1` (stereo not drawn) [Compound 20a, N-(9-chloro-8-hydroxy-3-methyl-5-phenyl-2,3,4,5-tetrahydro-1H-benzo[d]azepin-7-yl)isobutyramide]: the melting point was in the range of 144.6 to 145.9 °C. Further, the inhibition constant (Ki) in series [3] was 2940 ± 36.2 nM.

`C=CC(=O)Nc1cc2c(c(Cl)c1O)CCN(C)CC2c1ccccc1` (stereo not drawn) [Compound 21a, N-(9-chloro-8-hydroxy-3-methyl-5-phenyl-2,3,4,5-tetrahydro-1H-benzo[d]azepin-7-yl)acrylamide] displayed a melting point of 161.4 to 163.1 °C. For the same molecule, in series [3], the Ki worked out at 1500 ± 18.9 nM.

As for `C=CC(=O)Nc1cc2c(c(Cl)c1O)CCN(C)CC2c1cccc(C)c1` (stereo not drawn) [Compound 21b], in series [3], the affinity, expressed as Ki, was 4980 ± 61.3 nM.

As for `CN1CCc2c(cc(NC(N)=O)c(O)c2Cl)C(c2ccccc2)C1` (stereo not drawn) [Compound 23a, 1-(9-chloro-8-hydroxy-3-methyl-5-phenyl-2,3,4,5-tetrahydro-1H-benzo[d]azepin-7-yl)urea], the melting point fell in the range of 141 to 142.1 °C. This molecule also showed a Ki in series [3] of 1762 ± 17.6 nM.

Turning to `Cc1cccc(C2CN(C)CCc3c2cc(NC(N)=O)c(O)c3Cl)c1` (stereo not drawn) [Compound 23b, 1-(9-chloro-8-hydroxy-3-methyl-5-(m-tolyl)-2,3,4,5-tetrahydro-1H-benzo[d]azepin-7-yl)urea], the melting point lay within 184.6 to 186.1 °C.

Consider `O=[N+]([O-])c1cc2c(c(Cl)c1O)CCNCC2c1ccccc1` (stereo not drawn) [Compound 24a, 6-chloro-8-nitro-1-phenyl-2,3,4,5-tetrahydro-1H-benzo[d]azepin-7-ol], for which the melting point lay in the range of 201.4 to 202.8 °C. For the same molecule, in series [2], the “Ki D1R” value is on record as “no affinity”.

In turn, `Cc1cccc(C2CNCCc3c2cc([N+](=O)[O-])c(O)c3Cl)c1` (stereo not drawn) [Compound 24b, 6-chloro-8-nitro-1-(m-tolyl)-2,3,4,5-tetrahydro-1H-benzo[d]azepin-7-ol] registered a melting point of 188.9 to 191.2 °C. In addition, the inhibition constant (Ki) in series [3] was 38 nM and 38.1 nM. In series [1], this molecule registered an inhibition constant (Ki) of 97.9 ± 3.6 nM. The “Selectivity D5/D1” value in series [2] is on record as 2.6.

Take `CN1CCc2cc(Cl)c(O)cc2[C@H]2c3ccccc3CC[C@@H]21` [SCH 39166, reference compound]: the “Max Response, antagonist format” value at D1R [5] is on record as 102.24.
